Where two headings read alike, the source gives them in different places.
Experiments:
ddY mice = assay: Acute toxicity (LD50) by oral or intraperitoneal administration to ddY mice (Test Example 6); type: in vivo; details: 7 days, 10080 min; for LD50 (ip): intraperitoneal
Procedure: (§1) The acute toxicity of the compound according to this invention was determined by forced oral or intraperitoneal administration thereof to ddY mice.
(§2) To prepare each specimen to be administered, a predetermined amount of each compound shown in Table 5 was dissolved in a physiological saline or suspended in a 0.2% solution of carboxymethylcellulose in a physiological saline. Each specimen was administered orally to a ddY mouse via its stomach tube or injected intraperitoneally.

Sarcoma-180 = assay: Activity against a transplantable cancer, Sarcoma-180 (Test Example 7); type: in vivo, ICR-JCL mice; details: 100 mg/kg ip once a day for 10 days; for inhibition in vivo at 100 mg/kg: Mus musculus, Sarcoma-180, ip, 240 h, read-out: I.R. (inhibition ratio, Sarcoma-180 tumor weight)
Procedure: Sarcoma-180 cells (1×10^6 cells) were inoculated subcutaneously into the back skin of each of ICR-JCL mice.
Chemotherapy was given intraperitoneally 24 hrs. after inoculation and performed once a day for 10 days. Each specimen to be administered was prepared by dissolving or suspending 30 mg of each compound according to this invention in 1 ml of a physiological saline or in 1 ml of a 0.2% solution of carboxymethylcellulose in a physiological saline, respectively.
All the solutions and the suspensions thus prepared were injected at a volume of 0.1 ml as a single dose (100 mg/Kg).
The inhibition ratio (%) was calculated according to the following equation: […]
wherein T represents the mean weight of the tumor Sarcoma-180 in a tested group of mice; and C represents the mean weight of the tumor in a control group of mice.

[1] = system: platelet agglutination caused by ADP; assay: Inhibitory effect against platelet agglutinating agent ADP (Test Example 8); type: cell-based, human; parameters: key: The degree of agglutination was expressed by using marks +, ++, +++, etc.; The degree of agglutination was expressed by using marks +, ++, +++, etc.; The degree of agglutination was expressed by using marks +, ++, +++, etc; details: specimen 2 mM, dissolved in 50% ethanol
Procedure: (§3) Inhibitory activities of each compound of this invention against platelet agglutinating agents (ADP, collagen, thrombin, ristocetin and epinephrine)were investigated according to the method using a microscope.
(§4) PRP was prepared by mixing a 3.8% aqueous sodium citrate and a human vein blood at a ratio of 1:9; centrifuging the mixture at 700 r.p.m. for 10 minutes; and then collecting the supernatant.
(§5) The residue remaining after collection of the PRP mentioned above was subjected further to centrifugation at 3000 r.p.m. for 10 minutes and then collected the supernatant to obtain PPP.
(§6) Following solutions were employed for the test.
a. ADP (2 μM/ml solution)
(§7) In each well of a Multidish (Nunc Multidish having 24 wells) was placed 0.2 ml of PRP (containing 3.0×10^5 platelet cells/cmm).
(§8) Thereto was added 50 μl of a specimen solution containing 10 mM of the compound according to this invention, and the mixture was stirred at 37° C. for 2 minutes. To the mixture was added 10 μl of each solution of the platelet agglutinating agent mentioned above, and the result was observed by using a microscope 1 minute and then 5 minutes thereafter.
(§9) The degree of agglutination was expressed by using marks +, ++, +++, etc., according to the method by Fukutake et al [Katsuhiro Fukutake, Iwao Yamaguchi: Blood and Blood Vessel, Volume 6, No. 7, pp. 55-60 (1975)].

[2] = system: platelet agglutination caused by collagen; assay: Inhibitory effect against platelet agglutinating agent collagen (Test Example 8); type: cell-based, human; parameters: key: The degree of agglutination was expressed by using marks +, ++, +++, etc.; The degree of agglutination was expressed by using marks +, ++, +++, etc.; The degree of agglutination was expressed by using marks +, ++, +++, etc; details: specimen 2 mM, dissolved in 50% ethanol
Procedure: as §3, §4, §5, §6
b. collagen (0.25 μM/ml solution)
as §7, §8, §9

[3] = system: platelet agglutination caused by thrombin; assay: Inhibitory effect against platelet agglutinating agent thrombin (Test Example 8); type: cell-based, human; parameters: key: The degree of agglutination was expressed by using marks +, ++, +++, etc.; The degree of agglutination was expressed by using marks +, ++, +++, etc.; The degree of agglutination was expressed by using marks +, ++, +++, etc; details: specimen 2 mM, dissolved in 50% ethanol
Procedure: as §3, §4, §5, §6
c. thrombin (0.25 U/ml solution)
as §7, §8, §9

[4] = Acute toxicity (LD50) by oral or intraperitoneal administration to ddY mice (Test Example 6); type: in vivo; details: mouse, in vivo, 7 days
Procedure: as §1, §2

[5] = system: platelet agglutination caused by ristocetin; assay: Inhibitory effect against platelet agglutinating agent ristocetin (Test Example 8); type: cell-based, human; parameters: key: The degree of agglutination was expressed by using marks +, ++, +++, etc.; The degree of agglutination was expressed by using marks +, ++, +++, etc.; The degree of agglutination was expressed by using marks +, ++, +++, etc; details: specimen 2 mM, dissolved in 50% ethanol
Procedure: as §3, §4, §5, §6
d. ristocetin (1.5 mg/ml solution)
as §7, §8, §9

[6] = system: platelet agglutination caused by epinephrine; assay: Inhibitory effect against platelet agglutinating agent epinephrine (Test Example 8); type: cell-based, human; parameters: key: The degree of agglutination was expressed by using marks +, ++, +++, etc.; The degree of agglutination was expressed by using marks +, ++, +++, etc.; The degree of agglutination was expressed by using marks +, ++, +++, etc; details: specimen 2 mM, dissolved in 50% ethanol
Procedure: as §3, §4, §5, §6
e. epinephrine (2 μg/ml solution)
as §7, §8, §9

[7] = ip, intraperitoneal, read-out: LD50 (ip)

SMILES	LD50 (ip) (ddY mice)	LD50 (po) (ddY mice)	I.R. (inhibition ratio, Sarcoma-180 tumor weight) (Sarcoma-180)	State of agglutination, 5 min. [1]	State of agglutination, 5 min. [2]	State of agglutination, 5 min. [3]	LD50 at 168 h [4, 7]	LD50 at 168 h ([4]; po, read-out: LD50 (po))	inhibition in vivo at 100 mg/kg (Sarcoma-180)	State of agglutination, 5 min. [5]	State of agglutination, 5 min. [6]
O=C(O)c1ccc(S[C@@H]2OC[C@@H](O)[C@H](O)[C@H]2O)cc1 [Para(sodiumoxycarbonyl)phenyl 1-thio-β-D-xylopyranoside]	2600 mg/kg body weight	7000 mg/kg body weight	49.6%								
CCCCCCCCCCCCCCCCCCCCS[C@@H]1OC[C@@H](O)[C@H](O)[C@H]1O [n-Eicosyl 1-thio-β-D-xylopyranoside]				+	+	+	400 mg/kg	2300 mg/kg	32.2%	+	
CCCCCCCCC[C@@H]1OC[C@@H](O)[C@H](O)[C@H]1O [C-n-Nonyl-β-D-xylopyranoside]				+	+	+	920 mg/kg	3000 mg/kg	73.1%	+	
CCCCCCCCCCCCCCCCCCCC[C@@H]1OC[C@@H](O)[C@H](O)[C@H]1O [C-n-Eicosyl-β-D-xylopyranoside]				+	+	+	430 mg/kg	2620 mg/kg	44.3%	+	
CCCCCCCCCCCCCCCCCC[C@@H]1OC[C@@H](O)[C@H](O)[C@H]1O [C-n-Stearyl-β-D-xylopyranoside]				+	+	+	480 mg/kg	2500 mg/kg	54.6%	+	
CCCCCCCCCCCC[C@@H]1OC[C@@H](O)[C@H](O)[C@H]1O [C-n-Lauryl-β-D-xylopyranoside]					+	+	620 mg/kg	2800 mg/kg	83.4%	+	
O=C(O)c1ccc(O[C@@H]2OC[C@@H](O)[C@H](O)[C@H]2O)cc1 [Para(sodiumoxycarbonyl)phenyl-β-D-xylopyranoside]	2800 mg/kg body weight	8200 mg/kg body weight	39.7%								
O=C(O)c1ccc(C[C@@H]2OC[C@@H](O)[C@H](O)[C@H]2O)cc1 [C-para(sodiumoxycarbonyl)benzyl-β-D-xylopyranoside]	3000 mg/kg body weight	9300 mg/kg body weight	53.2%								
CCCCCCCCCCS[C@@H]1OC[C@@H](O)[C@H](O)[C@H]1O [n-Decyl 1-thio-β-D-xylopyranoside]				+	+	+	450 mg/kg	2500 mg/kg	40%	+	+
CCCCCCCCCCCCS[C@@H]1OC[C@@H](O)[C@H](O)[C@H]1O [n-Lauryl 1-thio-β-D-xylopyranoside]				+	+	+	407 mg/kg	2300 mg/kg	42.3%	+	
CCCCCCCCCCCCCCCCS[C@@H]1OC[C@@H](O)[C@H](O)[C@H]1O [n-Cetyl 1-thio-β-D-xylopyranoside]				+	+	+	425 mg/kg	2280 mg/kg	34.7%	+	
